From ChEMBL document CHEMBL1201862, “PubChem BioAssay data set” (2004)
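Step 1: Grow cells in 96-well plates. Step 2: Expose to compound for 48 hours at 5 concentrations. Step 3: Interpolate endpoints linearly; if unreached, use highest concentration. At the GI50, growth is halved.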 Calls of active or inactive are those of the source. Cut-off read from the data, not from the text of the source: active = GI50 up to about 1.1 µM and inactive = higher.

Assays:
Assay in all cases: NCI tumour cell line growth inhibition, 48 h
UO-31 = tested on: UO-31
SNB-19 = tested on: SNB-19
TK-10 = tested on: TK-10
OVCAR-3 = tested on: OVCAR-3
CCRF-CEM = tested on: CCRF-CEM
LOX IMVI = tested on: LOX IMVI
HCT-116 = tested on: HCT-116
UACC-62 = tested on: UACC-62
SF-295 = tested on: SF-295
SW-620 = tested on: SW-620
SK-OV-3 = tested on: SK-OV-3
NCI/ADR-RES = tested on: NCI/ADR-RES
HCT-15 = tested on: HCT-15
A498 = tested on: A498
Malme-3M = tested on: Malme-3M
MOLT-4 = tested on: MOLT-4
NCI-H522 = tested on: NCI-H522
CAKI-1 = tested on: CAKI-1
HCC 2998 = tested on: HCC 2998
MCF7 = tested on: MCF7

| SMILES | GI50 (UO-31) | GI50 (SNB-19) | GI50 (TK-10) | GI50 (OVCAR-3) | GI50 (CCRF-CEM) | GI50 (LOX IMVI) | GI50 (HCT-116) | GI50 (UACC-62) | GI50 (SF-295) | GI50 (SW-620) | GI50 (SK-OV-3) | GI50 (NCI/ADR-RES) | GI50 (HCT-15) | GI50 (A498) | GI50 (Malme-3M) | GI50 (MOLT-4) | GI50 (NCI-H522) | GI50 (CAKI-1) | GI50 (HCC 2998) | GI50 (MCF7) |
| --- | --- | --- | --- | --- | --- | --- | --- | --- | --- | --- | --- | --- | --- | --- | --- | --- | --- | --- | --- | --- |
| CC(=O)C(=N\Nc1ccc(Cl)cc1)/C(C)=N/c1ccc(C)cc1 | 30.1 µM (inactive) | 63.1 µM (inactive) | 33.5 µM (inactive) | 24.6 µM (inactive) | 11.2 µM (inactive) | 45 µM (inactive) | 36.8 µM (inactive) | 49.1 µM (inactive) | 32.4 µM (inactive) | 41.6 µM (inactive) | 46 µM (inactive) | 25.6 µM (inactive) | 45.6 µM | 11.9 µM (inactive) | 20.7 µM (inactive) | 16.7 µM (inactive) | 19.7 µM (inactive) | 49.3 µM (inactive) |  |  |
| CCOc1ccc(/C=C2\N=C(c3ccccc3)OC2=O)cc1 | > 100 µM (inactive) | > 100 µM (inactive) | > 100 µM (inactive) | > 100 µM (inactive) | > 100 µM (inactive) |  |  | > 100 µM (inactive) | > 100 µM (inactive) | > 100 µM (inactive) | > 100 µM (inactive) | > 100 µM (inactive) | > 100 µM |  |  | 8.71 µM (inactive) | 48.5 µM (inactive) |  | > 100 µM (inactive) | > 100 µM (inactive) |
| CC(=O)c1c(CO[N+](=O)[O-])[n+]([O-])c2ccccc2[n+]1[O-] | 70.6 µM (inactive) | > 100 µM (inactive) | > 100 µM (inactive) | 52.8 µM (inactive) | 37.9 µM (inactive) | 58.5 µM (inactive) | 47.4 µM (inactive) | 35.7 µM (inactive) | > 100 µM (inactive) | 63.7 µM (inactive) | > 100 µM (inactive) | > 100 µM (inactive) | 30.8 µM |  | 53.7 µM (inactive) | 78.3 µM (inactive) | 31.8 µM (inactive) | > 100 µM (inactive) |  | 74.3 µM (inactive) |
| CC1(C)CCCCCCC2CC2CCCCCC(C)(C)C1=O (stereo unspecified) | > 100 µM (inactive) | > 100 µM (inactive) | > 100 µM (inactive) | 76.4 µM (inactive) | 19.1 µM (inactive) | 19.8 µM (inactive) | 39.1 µM (inactive) | > 100 µM (inactive) | > 100 µM (inactive) | > 100 µM (inactive) | > 100 µM (inactive) | 99.3 µM (inactive) | 78.7 µM | > 100 µM (inactive) | > 100 µM (inactive) | 33.5 µM (inactive) | 51.9 µM (inactive) | > 100 µM (inactive) |  |  |
| COC1CCC2C(NS(=O)(=O)c3ccc(C)cc3)CCCC2O1.Cc1ccc(S(=O)(=O)NC(C)(C)C=O)cc1 (stereo unspecified) | 15 µM (inactive) | 16.1 µM (inactive) | 18.1 µM (inactive) | 13 µM (inactive) | 10.2 µM (inactive) | 5.62 µM (inactive) | 7.33 µM (inactive) | 33 µM (inactive) | 8.51 µM (inactive) | > 34.5 µM (inactive) | > 34.5 µM (inactive) |  | 15.6 µM | > 34.5 µM (inactive) | 23 µM (inactive) | 8.3 µM (inactive) | 9.02 µM (inactive) | 20.3 µM (inactive) | 33.5 µM (inactive) |  |
| O=C1/C(=C/c2cccc(Br)c2)Cc2ccccc21 | 31.8 µM (inactive) | 50.6 µM (inactive) | 63.5 µM (inactive) | 41.6 µM (inactive) | 58.7 µM (inactive) | 45.1 µM (inactive) | 27.6 µM (inactive) | 54.3 µM (inactive) | 39.7 µM (inactive) | > 100 µM (inactive) | 93.1 µM (inactive) | 50.6 µM (inactive) | 49.4 µM |  | > 100 µM (inactive) | 62.7 µM (inactive) | 96.4 µM (inactive) | 75.7 µM (inactive) |  | 3.66 µM (inactive) |
| O=C(NO)c1ccc(O)c(O)c1 | > 100 µM (inactive) | > 100 µM (inactive) | 98.6 µM (inactive) | > 100 µM (inactive) | 42.1 µM (inactive) | > 10 µM (inactive) | > 100 µM (inactive) | > 100 µM (inactive) | 29.5 µM (inactive) | 47.6 µM (inactive) | > 100 µM (inactive) |  | 98.4 µM | > 100 µM (inactive) | > 100 µM (inactive) | 93.3 µM (inactive) | 79.4 µM (inactive) | > 100 µM (inactive) | > 100 µM (inactive) |  |
| O=c1[nH]c2c(O)cccc2c2cc3c(c(O)c12)OCO3 [NARCIPRIMINE] | 17.1 µM (inactive) | 13.6 µM (inactive) | 42.7 µM (inactive) | 21.5 µM (inactive) | 10 µM (inactive) | 11 µM (inactive) | 13.8 µM (inactive) | 18.3 µM (inactive) | 20.1 µM (inactive) | 26.6 µM (inactive) | 23.6 µM (inactive) |  | 22.5 µM | 21.2 µM (inactive) | 22.8 µM (inactive) | 16.8 µM (inactive) | 19.3 µM (inactive) | 20.9 µM (inactive) | 19.5 µM (inactive) |  |
